Experimental data reported in patent US11306089B2, “Gamma-carboline compounds for the detection of Tau aggregates” (AC IMMUNE SA, priority 2018, dated 2022).

Assays:
[1] = molecular target: Tau in human Alzheimer disease brain homogenate (Homo sapiens, UniProt P10636); assay: Competition binding to Tau in AD brain homogenate (18F-labeled Tau binder); set-up: key to High affinity to Tau (IC50 in AD brain homogenate), grade: − poor; ∘ moderate; + good; ++ very good; +++ excellent
Protocol: Determination of Binding in AD and Healthy Control Brain Homogenates
20 μg of human Alzheimer disease brain homogenate was incubated with a dilution series of each test compound (1000 to 0.06 nM) in the presence of 800 Bq of ^18F-labeled Tau binder. The samples were shaken at 110 rpm for 45 min at 37° C. Samples were then filtered through GF/B 96 well filter plates and washed twice with 300 μL assay buffer (PBS containing 0.1% BSA and 2% DMSO). Thereafter, filter plates were sealed and a Fuji Film Imaging Plate (BAS-SR2025) was placed on top. The imaging plate was analyzed after overnight exposition using a Fuji Film BAS-5000. Non-specific signal was determined with samples containing ^18F-labeled Tau-reference binder in the presence of assay buffer without brain substrate and competitor. Specific binding was calculated by subtracting the non-specific signal from the measured samples signal. The unblocked ^18F-labeled Tau-binder signal was defined as total binding. IC50 values were calculated by Prism V7 (GraphPad) setting total binding to 100%.

[2] = molecular target: T1, MAO-A (Mus musculus, UniProt Q64133); assay: Binding affinity to MAO-A in mouse whole brain homogenate (3H-Harmine competition); set-up: key to Low affinity to MAO A (IC50 in mouse brain homogenate), grade: − poor; ∘ moderate; + good; ++ very good; +++ excellent
T1 construct: 20 μg of mouse whole brain or human brain homogenate; from tissue; host or cells: mouse whole brain homogenate
T1 sequence (Q64133 1-526): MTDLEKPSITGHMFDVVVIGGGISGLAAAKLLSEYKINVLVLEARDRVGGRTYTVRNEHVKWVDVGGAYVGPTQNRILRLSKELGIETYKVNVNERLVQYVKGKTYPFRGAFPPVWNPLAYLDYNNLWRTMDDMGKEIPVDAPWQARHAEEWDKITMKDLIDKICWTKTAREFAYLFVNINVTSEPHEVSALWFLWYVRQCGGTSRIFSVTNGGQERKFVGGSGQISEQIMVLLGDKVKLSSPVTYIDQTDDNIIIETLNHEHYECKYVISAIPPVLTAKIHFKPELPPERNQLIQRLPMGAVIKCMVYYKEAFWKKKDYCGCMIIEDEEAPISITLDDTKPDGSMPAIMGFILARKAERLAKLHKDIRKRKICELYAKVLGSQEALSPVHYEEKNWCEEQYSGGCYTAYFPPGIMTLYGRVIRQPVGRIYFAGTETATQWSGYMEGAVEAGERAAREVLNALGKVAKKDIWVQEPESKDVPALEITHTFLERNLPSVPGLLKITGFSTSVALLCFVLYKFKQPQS
Protocol: Determination of the Binding Affinity to MAO-A in HC Brain Homogenate
20 μg of mouse whole brain or human brain homogenate (without AD pathology, HC) was incubated with a dilution series of each test compound (1000 to 0.06 nM) in the presence of 700 Bq of ^3H-labeled MAO-A binder Harmine. The samples were shaken at 110 rpm for 60 min at 37° C. Samples were then filtered through GF/B 96 well filter plates and washed twice with 200 μL assay buffer (PBS containing 0.1% BSA and 2% DMSO). Thereafter, 40 μL Szintillation cocktail was added and the filter plates were sealed. The counts were then counted using a TopCount (Perkin Elmer). Non-specific signal was determined with samples containing ^3H-Harmine in the presence of assay buffer without brain substrate and competitor. Specific binding was calculated by subtracting the non-specific signal from the measured samples signal. The unblocked ^3H-Harmine signal was defined as total binding. IC50 values were calculated by Prism V7 (GraphPad) setting total binding to 100%.

[3] = mouse brain homogenate, 3H-Harmine competition

Tau in human Alzheimer disease brain homogenate, sequence (P10636 623-708 limits assumed): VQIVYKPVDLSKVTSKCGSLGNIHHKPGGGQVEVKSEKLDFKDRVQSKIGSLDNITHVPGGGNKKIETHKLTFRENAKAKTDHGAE

Structure (SMILES) | affinity towards tau (in words) ([1]; competition assay, human AD brain homogenate) | MAO-A binding affinity (in words) [2, 3] | High affinity to Tau (IC50 in AD brain homogenate), grade ([1]; AD brain homogenate, non-radioactive fluorine-19 derivatives) | IC50 ([1]; human AD brain homogenate, non-radioactive fluorine-19 derivatives) [nM] | Low affinity to MAO A (IC50 in mouse brain homogenate), grade ([2]; mouse brain homogenate) | IC50 [2, 3] [nM] | fold higher IC50 than compound 18F-1, MAO A in whole mouse brain homogenate ([2]; ratio to 18F-1) [fold]
Fc1cc(-c2nc3[nH]c4ccncc4c3s2)ccn1 [F-3] | good affinity | Low affinity |  |  |  |  | 
[18F]c1cc(-c2cc3[nH]c4ccncc4c3s2)ccn1 [^18F-3] |  |  | + | 13.4 | +++ | > 1000 | > 100
